In patent publication US4118561A, “7-(Substituted)-7H-pyrrolo[3,2-f]quinazoline-1,3-diamines” (priority 1977, dated 1978):
Values after ≈ are worked out from the molar mass of the structure shown.

Legend:
S. paratyphi 11737 = experiment: In vitro antibacterial activity (MIC), S. paratyphi 11737; assay type: cell-based; details: Salmonella enterica, 18 h
E. coli 9637 = experiment: In vitro antibacterial activity (MIC), E. coli 9637; details: Escherichia coli, 9637, 18 h
S. aureus Smith = experiment: In vitro antibacterial activity (MIC), S. aureus Smith; details: Staphylococcus aureus, 18 h
S. aureus 53-180 = experiment: In vitro antibacterial activity (MIC), S. aureus 53-180; details: Staphylococcus aureus, 53180, 18 h
P. vulgaris 6896 = experiment: In vitro antibacterial activity (MIC), P. vulgaris 6896; details: Proteus vulgaris, 6896, 18 h
N. catarrhalis 8193 = experiment: In vitro antibacterial activity (MIC), N. catarrhalis 8193; details: 18 h
K. pneumoniae 10031 = experiment: In vitro antibacterial activity (MIC), K. pneumoniae 10031; details: Klebsiella pneumoniae, 10031, 18 h

## Nc1nc(N)c2c(ccc3c2ccn3-c2cc(-c3ccccc3)nc3ccccc23)n1 [Example 95]
S. paratyphi 11737
  MIC: > 250 µg/mL
E. coli 9637
  MIC: 250 µg/mL (≈ 621 µM)
S. aureus Smith
  MIC: 31.3 µg/mL (≈ 77.8 µM)
S. aureus 53-180
  MIC: 7.81 µg/mL (≈ 19.4 µM)
P. vulgaris 6896
  MIC: > 250 µg/mL
N. catarrhalis 8193
  MIC: 15.6 µg/mL (≈ 38.8 µM)
K. pneumoniae 10031
  MIC: 250 µg/mL (≈ 621 µM)

## Cc1cc(C)c(C)c(Cn2ccc3c4c(N)nc(N)nc4ccc32)c1C [Example 28]
S. paratyphi 11737
  MIC: > 250 µg/mL
E. coli 9637
  MIC: > 250 µg/mL
S. aureus Smith
  MIC: 15.6 µg/mL (≈ 45.2 µM)
S. aureus 53-180
  MIC: 15.6 µg/mL (≈ 45.2 µM)
P. vulgaris 6896
  MIC: > 250 µg/mL
N. catarrhalis 8193
  MIC: 0.244 µg/mL (≈ 0.706 µM)
K. pneumoniae 10031
  MIC: 3.9 µg/mL (≈ 11.3 µM)

## Nc1nc(N)c2c(ccc3c2ccn3-c2ncccn2)n1 [Example 84]
S. paratyphi 11737
  MIC: > 250 µg/mL
E. coli 9637
  MIC: 7.81 µg/mL (≈ 28.2 µM)
S. aureus Smith
  MIC: 15.6 µg/mL (≈ 56.3 µM)
S. aureus 53-180
  MIC: 3.9 µg/mL (≈ 14.1 µM)
P. vulgaris 6896
  MIC: > 250 µg/mL
N. catarrhalis 8193
  MIC: 0.061 µg/mL (≈ 0.22 µM)
K. pneumoniae 10031
  MIC: 0.976 µg/mL (≈ 3.52 µM)

## Nc1nc(N)c2c(ccc3c2cc(Cl)n3Cc2ccccc2)n1 [Example 104, 8-Chloro-7-(phenylmethyl)-7H-pyrrolo-[3,2-f]quinazoline-1,3-diamine]
S. paratyphi 11737
  MIC: 7.81 µg/mL (≈ 24.1 µM)
E. coli 9637
  MIC: 3.9 µg/mL (≈ 12 µM)
S. aureus Smith
  MIC: 3.9 µg/mL (≈ 12 µM)
S. aureus 53-180
  MIC: 0.976 µg/mL (≈ 3.01 µM)
P. vulgaris 6896
  MIC: 31.3 µg/mL (≈ 96.7 µM)
N. catarrhalis 8193
  MIC: 0.061 µg/mL (≈ 0.188 µM)
K. pneumoniae 10031
  MIC: 0.244 µg/mL (≈ 0.754 µM)

## Cn1ccc2c3c(N)nc(N)nc3ccc21 [Example 65, 7-Methyl-7H-pyrrolo[3,2-f]quinazoline-1,3-diamine]
S. paratyphi 11737
  MIC: 3.9 µg/mL (≈ 18.3 µM)
E. coli 9637
  MIC: 0.976 µg/mL (≈ 4.58 µM)
S. aureus Smith
  MIC: 62.5 µg/mL (≈ 293 µM)
S. aureus 53-180
  MIC: 7.81 µg/mL (≈ 36.6 µM)
P. vulgaris 6896
  MIC: 1.95 µg/mL (≈ 9.14 µM)
N. catarrhalis 8193
  MIC: 0.031 µg/mL (≈ 0.145 µM)
K. pneumoniae 10031
  MIC: 1.95 µg/mL (≈ 9.14 µM)

## Cc1cccc(C)c1Cn1ccc2c3c(N)nc(N)nc3ccc21 [Example 24]
S. paratyphi 11737
  MIC: > 250 µg/mL
E. coli 9637
  MIC: 250 µg/mL (≈ 788 µM)
S. aureus Smith
  MIC: 250 µg/mL (≈ 788 µM)
S. aureus 53-180
  MIC: 250 µg/mL (≈ 788 µM)
P. vulgaris 6896
  MIC: > 250 µg/mL
N. catarrhalis 8193
  MIC: 0.122 µg/mL (≈ 0.384 µM)
K. pneumoniae 10031
  MIC: 15.6 µg/mL (≈ 49.1 µM)

## Cn1c2c(c3c4c(N)nc(N)nc4ccc31)CCCC2 [Example 109, 8,9,10,11-Tetrahydro-7-methyl-7H-pyrimido[4,5-c]carbazole-1,3-diamine]
S. paratyphi 11737
  MIC: 250 µg/mL (≈ 935 µM)
E. coli 9637
  MIC: > 250 µg/mL
S. aureus Smith
  MIC: 62.5 µg/mL (≈ 234 µM)
S. aureus 53-180
  MIC: 62.5 µg/mL (≈ 234 µM)
P. vulgaris 6896
  MIC: > 250 µg/mL
N. catarrhalis 8193
  MIC: 3.9 µg/mL (≈ 14.6 µM)
K. pneumoniae 10031
  MIC: 62.5 µg/mL (≈ 234 µM)

## Cc1cc(C)cc(Cn2ccc3c4c(N)nc(N)nc4ccc32)c1 [Example 26]
S. paratyphi 11737
  MIC: 15.6 µg/mL (≈ 49.1 µM)
E. coli 9637
  MIC: 7.81 µg/mL (≈ 24.6 µM)
S. aureus Smith
  MIC: 0.976 µg/mL (≈ 3.08 µM)
S. aureus 53-180
  MIC: 0.488 µg/mL (≈ 1.54 µM)
P. vulgaris 6896
  MIC: 15.6 µg/mL (≈ 49.1 µM)
N. catarrhalis 8193
  MIC: 0.031 µg/mL (≈ 0.0977 µM)
K. pneumoniae 10031
  MIC: 0.244 µg/mL (≈ 0.769 µM)

## Nc1nc(N)c2c(ccc3c2ccn3-c2ccc3ccccc3n2)n1 [Example 86]
S. paratyphi 11737
  MIC: > 250 µg/mL
E. coli 9637
  MIC: > 250 µg/mL
S. aureus Smith
  MIC: > 250 µg/mL
S. aureus 53-180
  MIC: > 250 µg/mL
P. vulgaris 6896
  MIC: > 250 µg/mL
N. catarrhalis 8193
  MIC: 0.122 µg/mL (≈ 0.374 µM)
K. pneumoniae 10031
  MIC: > 250 µg/mL

## Nc1nc(N)c2c(ccc3[nH]c(-c4ccccc4)cc32)n1 [Example 105, 8-Phenyl-7H-pyrrolo[3,2-f]-quinazoline-1,3-diamine]
S. paratyphi 11737
  MIC: 125 µg/mL (≈ 454 µM)
E. coli 9637
  MIC: 62.5 µg/mL (≈ 227 µM)
S. aureus Smith
  MIC: 7.81 µg/mL (≈ 28.4 µM)
S. aureus 53-180
  MIC: 15.6 µg/mL (≈ 56.7 µM)
P. vulgaris 6896
  MIC: > 250 µg/mL
N. catarrhalis 8193
  MIC: 62.5 µg/mL (≈ 227 µM)
K. pneumoniae 10031
  MIC: 31.3 µg/mL (≈ 114 µM)

## Nc1nc(N)c2c(ccc3c2ccn3CC2CCCO2)n1 (centres unmarked) [Example 67, 7-[(Tetrahydro-2-furanyl)methyl]-7H-pyrrolo-[3,2-f]quinazoline-1,3-diamine]
S. paratyphi 11737
  MIC: 7.81 µg/mL (≈ 27.6 µM)
E. coli 9637
  MIC: 1.95 µg/mL (≈ 6.88 µM)
S. aureus Smith
  MIC: 3.9 µg/mL (≈ 13.8 µM)
S. aureus 53-180
  MIC: 0.976 µg/mL (≈ 3.44 µM)
P. vulgaris 6896
  MIC: 3.9 µg/mL (≈ 13.8 µM)
N. catarrhalis 8193
  MIC: 0.0038 µg/mL (≈ 0.0134 µM)
K. pneumoniae 10031
  MIC: 0.488 µg/mL (≈ 1.72 µM)

## COc1ccc(OC)c(Cn2ccc3c4c(N)nc(N)nc4ccc32)c1 [Example 36]
S. paratyphi 11737
  MIC: 3.9 µg/mL (≈ 11.2 µM)
E. coli 9637
  MIC: 0.976 µg/mL (≈ 2.79 µM)
S. aureus Smith
  MIC: 0.244 µg/mL (≈ 0.698 µM)
S. aureus 53-180
  MIC: 0.122 µg/mL (≈ 0.349 µM)
P. vulgaris 6896
  MIC: 3.9 µg/mL (≈ 11.2 µM)
N. catarrhalis 8193
  MIC: 0.031 µg/mL (≈ 0.0887 µM)
K. pneumoniae 10031
  MIC: 0.031 µg/mL (≈ 0.0887 µM)

## Nc1nc(N)c2c(ccc3c2ccn3-c2ccccn2)n1 [Example 83]
S. paratyphi 11737
  MIC: 0.976 µg/mL (≈ 3.53 µM)
E. coli 9637
  MIC: 0.488 µg/mL (≈ 1.77 µM)
S. aureus Smith
  MIC: 0.976 µg/mL (≈ 3.53 µM)
S. aureus 53-180
  MIC: 0.488 µg/mL (≈ 1.77 µM)
P. vulgaris 6896
  MIC: 0.976 µg/mL (≈ 3.53 µM)
N. catarrhalis 8193
  MIC: 0.0076 µg/mL (≈ 0.0275 µM)
K. pneumoniae 10031
  MIC: 0.244 µg/mL (≈ 0.883 µM)

## Nc1nc(N)c2c(ccc3c2ccn3Cc2ccc(C(=O)[O-])cc2)n1.[Na+] [Example 68, 7-(4-Carboxybenzyl)-7H-pyrrolo[3,2-f]-quinazoline-1,3-diamine, sodium salt]
S. paratyphi 11737
  MIC: > 250 µg/mL
E. coli 9637
  MIC: > 250 µg/mL
S. aureus Smith
  MIC: 250 µg/mL
S. aureus 53-180
  MIC: 250 µg/mL
P. vulgaris 6896
  MIC: 250 µg/mL
N. catarrhalis 8193
  MIC: 62.5 µg/mL
K. pneumoniae 10031
  MIC: > 250 µg/mL
